The source of these data is patent publication US7390510B2, “Preparation of hypericin bonded with poly-N-vinylamides” (Sanochemia Pharmazeutika AG, priority 2000, dated 2008).

Data set [1] in a line: Time-dependent solubility of hypericin after complexation by PVP (absorption and fluorescence, FIG. 1). The format is physicochemical.
For data set [2] the following is noted: in vivo; cited from earlier work.

Consider `Cc1cc(O)c2c(=O)c3c(O)cc(O)c4c5c(O)cc(O)c6c(=O)c7c(O)cc(C)c8c1c2c(c34)c(c78)c65` [hypericin], for which, in data set [1] (aqueous solution, with or without PVP), the “solubility state in aqueous environment” value is “forms at once insoluble aggregates”. Further, in data set [1] (aqueous, hypericin+PVP after 30, 60, 180 minutes), the “absorption in the relevant spectral region” value is given as “no absorption”. For the same compound, the biological half-life in data set [2] is 34-38 h.
